This passage reports IC50 results from patent publication US9340590B2 (priority 2011, dated 2016).

What all share (experiment): cell-based
Assay [1] concerns the target hNav1.7 (Homo sapiens, UniProt Q15858). Format: cell-based. The note with it: IonWorks Quattro, read-out: IWQ Use Nav1.7. A general note: In patch-clamp work, channel activity is measured electrically.
The target of assay [2] is hNav1.5 (Homo sapiens, UniProt Q14524).
For assay [3], the target named is hNav1.3 (Homo sapiens, UniProt Q9NY46). The note with it: IonWorks Quattro, read-out: IWQ Use Nav1.3.
The mark [4] stands for this setting: IonWorks Quattro, use-dependent block, hNav1.5, read-out: IWQ Use Nav1.5.

Where two headings read alike, the source gives them in different places. Positions of bridges follow the written chain, without caps; N, C: chain ends. Non-standard residues stand in square brackets, D forms with d. Residues, ends and D or L forms follow the SMILES beside them. Trp(1-Me) = Cn1cc(C[C@H](N)C(=O)O)c2ccccc21; 1Nal = N[C@@H](Cc1cccc2ccccc12)C(=O)O

Chain of hNav1.3 (Q9NY46 whole entry, looked up): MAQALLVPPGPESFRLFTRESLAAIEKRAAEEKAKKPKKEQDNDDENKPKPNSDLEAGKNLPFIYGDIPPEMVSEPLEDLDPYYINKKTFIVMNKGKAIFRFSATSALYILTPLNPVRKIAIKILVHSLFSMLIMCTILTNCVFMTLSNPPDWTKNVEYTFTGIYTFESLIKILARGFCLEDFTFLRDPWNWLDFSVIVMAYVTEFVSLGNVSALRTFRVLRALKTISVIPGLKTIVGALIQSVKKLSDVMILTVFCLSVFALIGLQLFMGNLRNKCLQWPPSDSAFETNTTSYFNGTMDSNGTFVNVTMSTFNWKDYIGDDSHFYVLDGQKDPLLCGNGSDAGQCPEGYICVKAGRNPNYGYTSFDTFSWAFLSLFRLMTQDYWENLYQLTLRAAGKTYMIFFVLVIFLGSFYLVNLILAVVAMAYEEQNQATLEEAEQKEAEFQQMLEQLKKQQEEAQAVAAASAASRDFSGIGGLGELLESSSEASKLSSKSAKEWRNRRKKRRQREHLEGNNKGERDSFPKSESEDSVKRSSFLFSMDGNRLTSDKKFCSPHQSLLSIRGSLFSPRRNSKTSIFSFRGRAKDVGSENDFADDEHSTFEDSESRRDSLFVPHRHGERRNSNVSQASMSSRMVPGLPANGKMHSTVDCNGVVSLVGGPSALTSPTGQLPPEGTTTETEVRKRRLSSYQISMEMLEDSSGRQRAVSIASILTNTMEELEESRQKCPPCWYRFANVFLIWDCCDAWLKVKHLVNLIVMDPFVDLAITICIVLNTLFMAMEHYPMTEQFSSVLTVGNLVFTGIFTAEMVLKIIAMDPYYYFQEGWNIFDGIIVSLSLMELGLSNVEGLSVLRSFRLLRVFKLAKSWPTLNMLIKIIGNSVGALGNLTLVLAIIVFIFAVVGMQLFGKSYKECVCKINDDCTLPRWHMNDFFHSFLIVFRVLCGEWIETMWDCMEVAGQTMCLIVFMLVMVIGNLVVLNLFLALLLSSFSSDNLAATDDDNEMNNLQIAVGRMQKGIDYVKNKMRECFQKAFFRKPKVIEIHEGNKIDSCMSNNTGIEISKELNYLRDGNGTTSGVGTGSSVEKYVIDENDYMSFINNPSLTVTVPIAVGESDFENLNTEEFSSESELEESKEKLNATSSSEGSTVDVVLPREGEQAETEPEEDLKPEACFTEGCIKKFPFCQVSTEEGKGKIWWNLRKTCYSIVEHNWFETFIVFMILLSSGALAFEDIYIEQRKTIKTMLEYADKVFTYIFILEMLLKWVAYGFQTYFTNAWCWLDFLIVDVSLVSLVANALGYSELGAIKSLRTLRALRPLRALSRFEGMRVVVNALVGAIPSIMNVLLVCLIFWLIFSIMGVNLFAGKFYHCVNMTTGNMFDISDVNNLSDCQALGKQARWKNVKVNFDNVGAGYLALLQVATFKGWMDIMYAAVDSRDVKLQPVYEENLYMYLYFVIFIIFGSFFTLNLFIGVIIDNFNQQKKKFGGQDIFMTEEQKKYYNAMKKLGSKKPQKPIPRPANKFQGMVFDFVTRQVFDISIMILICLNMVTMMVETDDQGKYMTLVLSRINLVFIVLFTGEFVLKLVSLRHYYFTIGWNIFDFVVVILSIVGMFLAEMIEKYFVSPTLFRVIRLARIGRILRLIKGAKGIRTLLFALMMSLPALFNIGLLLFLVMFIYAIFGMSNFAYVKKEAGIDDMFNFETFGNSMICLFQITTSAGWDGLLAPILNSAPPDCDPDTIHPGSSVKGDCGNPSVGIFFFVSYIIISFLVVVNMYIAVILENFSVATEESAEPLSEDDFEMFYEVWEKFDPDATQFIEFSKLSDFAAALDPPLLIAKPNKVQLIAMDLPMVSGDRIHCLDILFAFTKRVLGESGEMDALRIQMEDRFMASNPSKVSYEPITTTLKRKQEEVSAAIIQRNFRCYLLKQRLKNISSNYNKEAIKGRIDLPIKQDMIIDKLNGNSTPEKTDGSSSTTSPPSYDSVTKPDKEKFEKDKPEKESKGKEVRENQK
Chain of hNav1.5 (Q14524 whole entry, looked up): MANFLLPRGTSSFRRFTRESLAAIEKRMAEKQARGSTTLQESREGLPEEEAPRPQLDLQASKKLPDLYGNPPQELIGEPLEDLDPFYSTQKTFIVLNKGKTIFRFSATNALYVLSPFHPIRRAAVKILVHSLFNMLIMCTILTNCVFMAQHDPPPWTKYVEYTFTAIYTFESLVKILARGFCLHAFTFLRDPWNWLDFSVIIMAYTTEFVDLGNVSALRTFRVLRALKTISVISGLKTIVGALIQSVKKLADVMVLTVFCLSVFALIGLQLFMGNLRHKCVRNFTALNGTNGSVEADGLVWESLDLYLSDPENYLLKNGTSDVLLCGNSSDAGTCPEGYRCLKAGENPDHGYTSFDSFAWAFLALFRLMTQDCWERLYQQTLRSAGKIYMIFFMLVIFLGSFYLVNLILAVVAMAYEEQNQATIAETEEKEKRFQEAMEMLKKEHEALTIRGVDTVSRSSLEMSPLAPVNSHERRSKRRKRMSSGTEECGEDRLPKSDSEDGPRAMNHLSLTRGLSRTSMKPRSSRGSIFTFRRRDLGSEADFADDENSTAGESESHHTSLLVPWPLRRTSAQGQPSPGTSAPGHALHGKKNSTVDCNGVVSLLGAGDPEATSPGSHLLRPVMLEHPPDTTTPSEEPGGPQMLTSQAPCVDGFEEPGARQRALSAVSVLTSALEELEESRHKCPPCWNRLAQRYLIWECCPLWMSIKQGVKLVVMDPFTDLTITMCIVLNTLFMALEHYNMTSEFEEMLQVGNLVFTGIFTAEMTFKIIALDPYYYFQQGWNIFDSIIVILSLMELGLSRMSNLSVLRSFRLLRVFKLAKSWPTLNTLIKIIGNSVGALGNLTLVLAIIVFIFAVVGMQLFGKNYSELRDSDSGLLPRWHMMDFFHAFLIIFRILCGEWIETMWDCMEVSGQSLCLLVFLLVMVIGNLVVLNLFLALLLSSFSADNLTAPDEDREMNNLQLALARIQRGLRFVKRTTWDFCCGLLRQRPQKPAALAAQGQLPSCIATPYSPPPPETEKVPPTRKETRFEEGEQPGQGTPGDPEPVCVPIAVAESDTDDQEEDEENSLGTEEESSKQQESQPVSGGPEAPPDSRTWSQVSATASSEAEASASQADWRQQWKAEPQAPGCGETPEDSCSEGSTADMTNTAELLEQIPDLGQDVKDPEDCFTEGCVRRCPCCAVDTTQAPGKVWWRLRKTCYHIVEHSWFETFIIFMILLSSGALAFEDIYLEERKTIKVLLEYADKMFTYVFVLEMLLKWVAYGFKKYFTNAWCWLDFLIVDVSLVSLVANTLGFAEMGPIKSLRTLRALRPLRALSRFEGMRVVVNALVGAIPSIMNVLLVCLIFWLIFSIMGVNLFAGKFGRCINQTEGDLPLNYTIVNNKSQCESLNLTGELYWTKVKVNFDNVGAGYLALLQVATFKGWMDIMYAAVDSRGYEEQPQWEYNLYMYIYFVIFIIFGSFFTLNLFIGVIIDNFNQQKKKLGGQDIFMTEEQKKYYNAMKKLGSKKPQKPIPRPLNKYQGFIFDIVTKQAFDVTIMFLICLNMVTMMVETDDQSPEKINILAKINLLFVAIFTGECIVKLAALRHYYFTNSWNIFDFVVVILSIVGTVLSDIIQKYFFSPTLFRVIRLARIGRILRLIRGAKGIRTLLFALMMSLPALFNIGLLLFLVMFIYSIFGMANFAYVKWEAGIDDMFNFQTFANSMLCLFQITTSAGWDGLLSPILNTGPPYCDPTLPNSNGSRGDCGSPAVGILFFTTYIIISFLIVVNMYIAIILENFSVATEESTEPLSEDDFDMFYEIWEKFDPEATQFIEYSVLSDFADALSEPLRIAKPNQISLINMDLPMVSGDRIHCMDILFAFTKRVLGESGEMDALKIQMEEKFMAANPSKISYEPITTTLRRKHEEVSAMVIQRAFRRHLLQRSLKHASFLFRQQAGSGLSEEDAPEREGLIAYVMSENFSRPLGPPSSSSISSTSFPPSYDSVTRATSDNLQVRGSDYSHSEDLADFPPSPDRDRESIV

For the compound `CC[C@H](C)[C@@H]1NC(=O)[C@@H]2CSSC[C@@H]3NC(=O)[C@H](C(C)C)NC(=O)[C@H](CC(C)C)NC(=O)[C@H](CC(N)=O)NC(=O)[C@@H]4CCCN4C(=O)[C@H](CCCNC(=N)N)NC(=O)[C@H](CSSC[C@H](NC(=O)[C@@H](N)CC(=O)O)C(=O)N[C@@H](CC(C)C)C(=O)NCC(=O)N[C@@H](Cc4ccccc4)C(=O)N[C@@H](CCSC)C(=O)N[C@@H](CCCNC(=N)N)C(=O)N[C@@H](CCCCN)C(=O)N2)NC(=O)[C@H](CSSC[C@@H](C(=O)N[C@@H](CCCCN)C(=O)N[C@@H](Cc2ccc(O)cc2)C(=O)N[C@@H](Cc2cn(C)c4ccccc24)C(=O)N[C@@H](Cc2ccccc2)C(N)=O)NC(=O)[C@H](Cc2c[nH]c4ccccc24)NC(=O)[C@H](CCCCN)NC(=O)[C@H](Cc2c[nH]cn2)NC(=O)[C@H]([C@@H](C)O)NC(=O)[C@H](CCCNC(=N)N)NC(=O)[C@H](CO)NC3=O)NC(=O)[C@H](CCCCN)NC(=O)[C@H](CC(=O)O)NC(=O)[C@H](CC(N)=O)NC(=O)[C@H](CC(=O)O)NC(=O)[C@@H]2CCCN2C1=O` [compound 250] (H-DCLGFMRKCIPDNDKCCRPNLVCSRTHKWCKY[Trp(1-Me)]F-NH2; disulfide 2-17, 9-23, 16-30), the IC50 in assay [1] (Table 26, use, […]) came out at 90 nM; in assay [2] (Table 26, IonWorks Quattro, use, […], read-out: IWQ Use Nav1.5), 5.35 µM; in assay [3] (Table 26, use, […]), 70 nM.
In the case of `CC[C@H](C)[C@@H]1NC(=O)[C@@H]2CSSC[C@@H]3NC(=O)[C@H](C(C)C)NC(=O)[C@H](CC(C)C)NC(=O)[C@H](CC(N)=O)NC(=O)[C@@H]4CCCN4C(=O)[C@H](CCCNC(=N)N)NC(=O)[C@H](CSSC[C@H](NC(=O)[C@@H](N)CC(=O)O)C(=O)N[C@@H](CC(C)C)C(=O)NCC(=O)N[C@@H](Cc4ccccc4)C(=O)N[C@@H](CCSC)C(=O)N[C@@H](CCCNC(=N)N)C(=O)N[C@@H](CCCCN)C(=O)N2)NC(=O)[C@H](CSSC[C@@H](C(=O)N[C@@H](CCCCN)C(=O)N[C@@H](Cc2cccc4ccccc24)C(=O)N[C@H](C(=O)N[C@@H](Cc2ccccc2)C(N)=O)C(C)C)NC(=O)[C@H](Cc2c[nH]c4ccccc24)NC(=O)[C@H](CCCNC(=N)N)NC(=O)[C@H](Cc2c[nH]cn2)NC(=O)[C@H]([C@@H](C)O)NC(=O)[C@H](CCCNC(=N)N)NC(=O)[C@H](CO)NC3=O)NC(=O)[C@H](CCCCN)NC(=O)[C@H](CC(=O)O)NC(=O)[C@H](CC(N)=O)NC(=O)[C@H](CC(=O)O)NC(=O)[C@@H]2CCCN2C1=O` [compound 251] (H-DCLGFMRKCIPDNDKCCRPNLVCSRTHRWCK[1Nal]VF-NH2; disulfide 2-17, 9-23, 16-30), the IC50 in assay [1] (use-dependent block, hNav1.7) was determined as 5 nM; in assay [2] (setting [4]), 2.56 µM; in assay [3] (use-dependent block, hNav1.3) it was 2 nM.
For `CC[C@H](C)[C@@H]1NC(=O)[C@@H]2CSSC[C@@H]3NC(=O)[C@H](C(C)C)NC(=O)[C@H](CC(C)C)NC(=O)[C@H](CC(N)=O)NC(=O)[C@@H]4CCCN4C(=O)[C@H](CCCNC(=N)N)NC(=O)[C@H](CSSC[C@H](NC(=O)[C@@H](N)CC(=O)O)C(=O)N[C@@H](CC(C)C)C(=O)NCC(=O)N[C@@H](C)C(=O)N[C@@H](CCSC)C(=O)N[C@@H](CCCNC(=N)N)C(=O)N[C@@H](CCCCN)C(=O)N2)NC(=O)[C@H](CSSC[C@@H](C(=O)N[C@@H](CCCCN)C(=O)N[C@@H](Cc2ccc(O)cc2)C(=O)N[C@@H](Cc2c[nH]c4ccccc24)C(=O)N[C@@H](Cc2ccccc2)C(N)=O)NC(=O)[C@H](Cc2c[nH]c4ccccc24)NC(=O)[C@H](CCCCN)NC(=O)[C@H](Cc2c[nH]cn2)NC(=O)[C@H]([C@@H](C)O)NC(=O)[C@H](CCCNC(=N)N)NC(=O)[C@H](CO)NC3=O)NC(=O)[C@H](CCCCN)NC(=O)[C@H](CC(=O)O)NC(=O)[C@H](CC(N)=O)NC(=O)[C@H](CC(=O)O)NC(=O)[C@@H]2CCCN2C1=O` [compound 252] (H-DCLGAMRKCIPDNDKCCRPNLVCSRTHKWCKYWF-NH2; disulfide 2-17, 9-23, 16-30), in that order: 230 nM, 5 µM and 400 nM.
The like results for `CC[C@H](C)[C@@H]1NC(=O)[C@@H]2CSSC[C@@H]3NC(=O)[C@H](C(C)C)NC(=O)[C@H](CC(C)C)NC(=O)[C@H](CC(N)=O)NC(=O)[C@@H]4CCCN4C(=O)[C@H](CCCNC(=N)N)NC(=O)[C@H](CSSC[C@H](NC(=O)[C@@H](N)CC(=O)O)C(=O)N[C@@H](CC(C)C)C(=O)NCC(=O)N[C@@H](C)C(=O)N[C@@H](CCSC)C(=O)N[C@@H](CCCNC(=N)N)C(=O)N[C@@H](CCCCN)C(=O)N2)NC(=O)[C@H](CSSC[C@@H](C(=O)N[C@@H](CCCCN)C(=O)N[C@@H](Cc2c[nH]c4ccccc24)C(=O)N[C@H](C(=O)N[C@@H](Cc2ccccc2)C(N)=O)C(C)C)NC(=O)[C@H](Cc2c[nH]c4ccccc24)NC(=O)[C@H](CCCCN)NC(=O)[C@H](Cc2c[nH]cn2)NC(=O)[C@H]([C@@H](C)O)NC(=O)[C@H](CCCNC(=N)N)NC(=O)[C@H](CO)NC3=O)NC(=O)[C@H](CCCCN)NC(=O)[C@H](CC(=O)O)NC(=O)[C@H](CC(N)=O)NC(=O)[C@H](CC(=O)O)NC(=O)[C@@H]2CCCN2C1=O` [compound 253] (H-DCLGAMRKCIPDNDKCCRPNLVCSRTHKWCKWVF-NH2; disulfide 2-17, 9-23, 16-30) were, in that order, 270 nM, 5 µM and 530 nM.
The like results for `CC[C@H](C)[C@@H]1NC(=O)[C@@H]2CSSC[C@@H]3NC(=O)[C@H](C(C)C)NC(=O)[C@H](CC(C)C)NC(=O)[C@H](CC(N)=O)NC(=O)[C@@H]4CCCN4C(=O)[C@H](CCCNC(=N)N)NC(=O)[C@H](CSSC[C@H](NC(=O)[C@@H](N)CC(=O)O)C(=O)N[C@@H](CC(C)C)C(=O)NCC(=O)N[C@@H](C)C(=O)N[C@@H](CCSC)C(=O)N[C@@H](CCCNC(=N)N)C(=O)N[C@@H](CCCCN)C(=O)N2)NC(=O)[C@H](CSSC[C@@H](C(=O)N[C@@H](CCCCN)C(=O)N[C@@H](Cc2cccc4ccccc24)C(=O)N[C@H](C(=O)N[C@@H](Cc2ccccc2)C(N)=O)C(C)C)NC(=O)[C@H](Cc2c[nH]c4ccccc24)NC(=O)[C@H](CCCCN)NC(=O)[C@H](Cc2c[nH]cn2)NC(=O)[C@H]([C@@H](C)O)NC(=O)[C@H](CCCNC(=N)N)NC(=O)[C@H](CO)NC3=O)NC(=O)[C@H](CCCCN)NC(=O)[C@H](CC(=O)O)NC(=O)[C@H](CC(N)=O)NC(=O)[C@H](CC(=O)O)NC(=O)[C@@H]2CCCN2C1=O` [compound 254] (H-DCLGAMRKCIPDNDKCCRPNLVCSRTHKWCK[1Nal]VF-NH2; disulfide 2-17, 9-23, 16-30) were, in that order, 60 nM, 5 µM and 200 nM.
As to `CC[C@H](C)[C@@H]1NC(=O)[C@@H]2CSSC[C@@H]3NC(=O)[C@H](C(C)C)NC(=O)[C@H](CC(C)C)NC(=O)[C@H](CC(N)=O)NC(=O)[C@@H]4CCCN4C(=O)[C@H](CCCNC(=N)N)NC(=O)[C@H](CSSC[C@H](NC(=O)[C@@H](N)CC(=O)O)C(=O)N[C@@H](CC(C)C)C(=O)NCC(=O)N[C@@H](C)C(=O)N[C@@H](CCSC)C(=O)N[C@@H](CCCNC(=N)N)C(=O)N[C@@H](CCCCN)C(=O)N2)NC(=O)[C@H](CSSC[C@@H](C(=O)N[C@@H](CCCCN)C(=O)N[C@@H](Cc2ccc(O)cc2)C(=O)N[C@H](C(=O)N[C@@H](Cc2ccccc2)C(N)=O)C(C)C)NC(=O)[C@H](Cc2c[nH]c4ccccc24)NC(=O)[C@H](CCCCN)NC(=O)[C@H](Cc2cnc[nH]2)NC(=O)[C@H](CC(C)C)NC(=O)[C@H](CCCNC(=N)N)NC(=O)[C@H](CO)NC3=O)NC(=O)[C@H](CCCCN)NC(=O)[C@H](CC(=O)O)NC(=O)[C@H](CC(N)=O)NC(=O)[C@H](CC(=O)O)NC(=O)[C@@H]2CCCN2C1=O` [compound 255] (H-DCLGAMRKCIPDNDKCCRPNLVCSRLHKWCKYVF-NH2; disulfide 2-17, 9-23, 16-30), the IC50 in assay [1] (use-dependent block, hNav1.7) came out at 280 nM; in assay [2] (IWQ Use Nav1.5 (μM)), 5 µM; in assay [3] (use-dependent block, hNav1.3), 680 nM.
Consider `CC[C@H](C)[C@@H]1NC(=O)[C@@H]2CSSC[C@@H]3NC(=O)[C@H](C(C)C)NC(=O)[C@H](CC(C)C)NC(=O)[C@H](CC(N)=O)NC(=O)[C@@H]4CCCN4C(=O)[C@H](CCCNC(=N)N)NC(=O)[C@H](CSSC[C@H](NC(=O)[C@@H](N)CC(=O)O)C(=O)N[C@@H](CC(C)C)C(=O)NCC(=O)N[C@@H](C)C(=O)N[C@@H](Cc4cccc5ccccc45)C(=O)N[C@@H](CCCNC(=N)N)C(=O)N[C@@H](CCCCN)C(=O)N2)NC(=O)[C@H](CSSC[C@@H](C(=O)N[C@@H](CCCCN)C(=O)N[C@@H](Cc2ccc(O)cc2)C(=O)N[C@H](C(=O)N[C@@H](Cc2ccccc2)C(N)=O)C(C)C)NC(=O)[C@H](Cc2c[nH]c4ccccc24)NC(=O)[C@H](CCCCN)NC(=O)[C@H](Cc2cnc[nH]2)NC(=O)[C@H]([C@@H](C)O)NC(=O)[C@H](CCCNC(=N)N)NC(=O)[C@H](CO)NC3=O)NC(=O)[C@H](CCCCN)NC(=O)[C@H](CC(=O)O)NC(=O)[C@H](CC(N)=O)NC(=O)[C@H](CC(=O)O)NC(=O)[C@@H]2CCCN2C1=O` [compound 256], for which the IC50 in assay [1] (use-dependent block, hNav1.7) was 100 nM; in assay [2] (setting [4]) it was 5 µM; in assay [3] (use-dependent block, hNav1.3), 60 nM.
